In one data set the test system is GL261 cells. Kind of data set: MTT cell growth inhibition (GI50), GL261. In kind it is cell-based, murine. The settings on record: 3 days. Here is the method: (§1) The drug concentration required to block net cell growth by 50% relative to a control sample is measured as the GI50. The GI50s for several of the compounds of the application were assayed as described.
(§2) MTT assay: U87 and GL261 cells were seeded in 96-well plate (6×10^3 cells in 100 μl of DMEM+10% FBS media per well) and incubated overnight at 37° C. with 5% CO2. All test compounds were diluted (10 point 2-fold serial dilution) in a separate 96-well plate to yield 10× of final concentrations (0.5-256 nM). A volume of 11 μl of 10× dilutions was added to appropriate wells (n=3). To value (reflecting the starting number of cells upon drug treatment) was determined by following steps as described below. After 3 days incubation at 37° C. with 5% CO2, 10 μl of MTT solution (5 mg/ml in PBS) was added to each well and plates were incubated at 37° C. for 3 h to allow MTT to form formazan crystals by reacting with metabolically active cells. 100 μl of 20% SDS was added to each well and plates were incubated overnight at 37° C. with 5% CO2. Afterward, OD570 was measured using microplate reader. The cell growth percentage of control was calculated according to percentage of control=(T−T0)/(C−T0)×100% or OD value of the test well exposure to test drug—OD value at time zero/(OD of the control well without drug treatment−OD value at time zero)×100%. Growth inhibition curves and GI50 were determined using GraphPad Prism 5 software.

For another data set, the system named is U87 cells. As to the kind of experiment: MTT cell growth inhibition (GI50), U87. In kind it is cell-based, human. To be noted: 3 days. How it is done: as §1, §2
The nature of data set [1]: Pharmacokinetic properties after IV and PO administration. In kind it is in vivo.
A short description of data set [2]: Brain permeability (brain:plasma ratio). In kind it is in vivo. To be noted: read-out: Brain:Plasma (B:P) Average. How it is done: Brain permeability can be measured by various methods known in the art. For example, brain permeability can be measured by calculating the ratio between the concentration of a compound of the application in the brain and the concentration of the compound in the plasma (i.e., BP ratio). In one aspect, a compound of the application has a B:P ratio of at least 1.0, 1.1, 1.2, 1.3, 1.4, 1.5, 1.6, 1.7, 1.8, 1.9, or 2.0 at 1 hour after administration of the compound to a subject. In one aspect, a compound of the application has a B:P ratio of at least 1.5, 1.6, 1.7, 1.8, 1.9, or 2.0 at 1 hour after administration of the compound to a subject. In one aspect, a compound of the application has a B:P ratio of at least 1.4, 1.5, 1.6, 1.7, 1.8, 1.9, 2.0, 2.1, 2.2, or 2.3 at 2 hours after administration of the compound to a subject. In one aspect, a compound of the application has a B:P ratio of at least 1.9, 2.0, 2.1, 2.2, or 2.3 at 2 hours after administration of the compound to a subject. In one aspect, a compound of the application has a B:P ratio of at least 1.7, 1.8, 1.9, 2.0, 2.1, 2.2, 2.3, 2.4, or 2.5 at 4 hours after administration of the compound to a subject. In one aspect, a compound of the application has a B:P ratio of at least 2.2, 2.3, 2.4, or 2.5 at 4 hours after administration of the compound to a subject.

[3] abbreviates: in vivo, IV Administration (5 mg/kg).

Where “and” joins values, the source holds several entries; their conditions need not be identical. Identical values can stand only once.

For `C[C@H]1CN(c2ccc(-c3ccc(CC(=O)NCc4cccc(F)c4)nc3)cc2)CCO1` [Compound 100], the GI50 (in general, the concentration at which growth is held to half of that of the control) was 127 nM in the data set on GL261 cells; 129 nM in the data set on GL261 cells (Mus musculus, GL261, 72 h); 151 nM in the data set with U87 cells; 203 nM in the data set on U87 cells (Homo sapiens, U-87 MG, 72 h).
Turning to `C[C@@H]1CN(c2ccc(-c3ccc(CC(=O)NCc4cccc(F)c4)nc3)cc2)CCO1` [Compound 101], the GI50 in the data set with GL261 cells (Mus musculus, GL261, 72 h) is 76 nM; in the data set with U87 cells (Homo sapiens, U-87 MG, 72 h), 96 nM.
For the compound `C[C@H]1COCCN1c1ccc(-c2ccc(CC(=O)NCc3cccc(F)c3)nc2)cc1` [Compound 102], the concentration for 50% growth inhibition (GI50) was 42 nM in the data set with GL261 cells; 24 nM in the data set on GL261 cells (Mus musculus, GL261, 72 h); 37 nM with U87 cells; 25 nM with U87 cells (Homo sapiens, U-87 MG, 72 h).
As for `C[C@@H]1COCCN1c1ccc(-c2ccc(CC(=O)NCc3cccc(F)c3)nc2)cc1` [Compound 103], the GI50 worked out at 113 nM in the data set with GL261 cells (Mus musculus, GL261, 72 h) and 146 nM in the data set with U87 cells (Homo sapiens, U-87 MG, 72 h).
Regarding `Cc1cc(N2CCOC[C@H]2C)ccc1-c1ccc(CC(=O)NCc2ccccc2)nc1` [Compound 105], the 50% growth inhibitory concentration (GI50) came to 6.9 nM in the data set on GL261 cells; 5.7 nM with GL261 cells (Mus musculus, GL261, 72 h); 12.2 nM with U87 cells; 10.8 nM with U87 cells (Homo sapiens, U-87 MG, 72 h).
For the compound `Cc1cc(N2CCOC[C@@H]2C)ccc1-c1ccc(CC(=O)N[C@@H]2CCc3ccccc32)nc1` [Compound 107], the GI50 with GL261 cells was found to be 28.3 nM; with GL261 cells (Mus musculus, GL261, 72 h) it was 19.4 nM; with U87 cells it was 23.4 nM; in the data set on U87 cells (Homo sapiens, U-87 MG, 72 h) it was 22.1 nM.
`Cc1cc(CC(=O)NCc2cccc(F)c2)ncc1-c1ccc(N2CCOC[C@@H]2C)cc1` [Compound 109]: the GI50 with GL261 cells (Mus musculus, GL261, 72 h) is greater than 1020 nM; with U87 cells (Homo sapiens, U-87 MG, 72 h), greater than 1020 nM.
Consider `Cc1cc(CC(=O)NCc2cccc(F)c2)ncc1-c1ccc(N2CCOC[C@H]2C)cc1` [Compound 110], for which the GI50 in the data set on GL261 cells (Mus musculus, GL261, 72 h) is greater than 1020 nM; in the data set with U87 cells (Homo sapiens, U-87 MG, 72 h), greater than 1020 nM.
For the compound `Cc1cc(CC(=O)NCc2ccccc2)ncc1-c1ccc(N2CCOC[C@@H]2C)cc1` [Compound 111], the GI50 was 170 nM in the data set on GL261 cells; 195 nM in the data set on GL261 cells (Mus musculus, GL261, 72 h); 224 nM in the data set with U87 cells; 239 nM in the data set on U87 cells (Homo sapiens, U-87 MG, 72 h).
As for `Cc1cc(CC(=O)NCc2ccccc2)ncc1-c1ccc(N2CCOC[C@H]2C)cc1` [Compound 112], the GI50 in the data set on GL261 cells is 240 nM; in the data set with GL261 cells (Mus musculus, GL261, 72 h) it was 210 nM; with U87 cells it was 401 nM; in the data set with U87 cells (Homo sapiens, U-87 MG, 72 h) it was 352 nM.
Take `Cc1nc(CC(=O)NCc2cccc(F)c2)ccc1-c1ccc(N2CCOC[C@H]2C)cc1` [Compound 114]: the GI50 in the data set on GL261 cells amounted to 500 nM; in the data set on GL261 cells (Mus musculus, GL261, 72 h), 340 nM.
`Cc1nc(CC(=O)NCc2ccccc2)ccc1-c1ccc(N2CCOC[C@@H]2C)cc1` [Compound 115]: the GI50 in the data set with U87 cells is 15 nM and 15.6 nM; with U87 cells (Homo sapiens, U-87 MG, 72 h), 30 nM.
Turning to `Cc1nc(CC(=O)NCc2ccccc2)ccc1-c1ccc(N2CCOC[C@H]2C)cc1` [Compound 116], the GI50 was 90 nM and 74 nM in the data set on GL261 cells; 110 nM in the data set with GL261 cells (Mus musculus, GL261, 72 h); 115 nM and 98 nM with U87 cells; 120 nM in the data set on U87 cells (Homo sapiens, U-87 MG, 72 h).
For the compound `Cc1cc(N2CCOC[C@@H]2C)ccc1-c1ccc(CC(=O)NCc2ccncc2)nc1` [Compound 117], the GI50 was 387 nM with GL261 cells; 488 nM in the data set with GL261 cells (Mus musculus, GL261, 72 h); greater than 729 nM in the data set with U87 cells (Homo sapiens, U-87 MG, 72 h).
As for `Cc1cc(N2CCOC[C@@H]2C)ccc1-c1ccc(CC(=O)NCc2cccnc2)nc1` [Compound 118], the GI50 was 262 nM in the data set on GL261 cells (Mus musculus, GL261, 72 h) and 621 nM with U87 cells (Homo sapiens, U-87 MG, 72 h).
`Cc1cc(N2CCOC[C@@H]2C)ccc1-c1ccc(CC(=O)NCc2ccccn2)nc1` [Compound 119]: the GI50 was 216 nM and 139 nM in the data set on GL261 cells; 164 nM with GL261 cells (Mus musculus, GL261, 72 h); 233 nM and 224 nM in the data set on U87 cells; 129 nM with U87 cells (Homo sapiens, U-87 MG, 72 h).
Consider `Cc1cc(N2CCOC[C@@H]2C)ccc1-c1ccc(CC(=O)NCc2ccccc2F)nc1` [Compound 120], for which the GI50 is 13.6 nM and 18.9 nM and 15.8 nM and 13.4 nM and 10.7 nM in the data set on GL261 cells; 17 nM in the data set on GL261 cells (Mus musculus, GL261, 72 h); 22.3 nM and 18.4 nM and 17.7 nM and 18.6 nM in the data set with U87 cells; 20.2 nM in the data set with U87 cells (Homo sapiens, U-87 MG, 72 h). Also, the “AUCIV (dose-normalized)” value in data set [1] (IV Administration (5 mg/kg)) amounted to 188 kg·ng·h/mL/mg. This compound had a t0.5 in data set [1] (IV Administration (5 mg/kg)) of 0.663 h. In addition, the “F (%) = 100 × AUCpo/AUCIV” value in data set [1] (PO 20 mg/kg vs IV 5 mg/kg) was found to be 40.9%. The “AUCPO (dose-normalized)” value in data set [1] (PO Administration (20 mg/kg)) was 76.8 kg·ng·h/mL/mg. Besides, the C0 in data set [1] (setting [3]) is 1590 ng/mL. Besides, in data set [1] (setting [3]), the clearance is 88.7 mL/min/kg. In addition, the Vd in data set [1] (in vivo, IV Administration (5 mg/kg), read-out: Vss) was found to be 3.63 L/kg. Also, the Cmax (as a rule, the maximum level reached in the sampled fluid or tissue) in data set [1] (in vivo, PO Administration (20 mg/kg)) was found to be 798 ng/mL. Further, the Kp at 0.25 h in data set [2] (time point 0.25 h) is 1.24. Further, the Kp at 0.5 h in data set [2] (time point 0.5 h) amounted to 1.39. The Kp at 1 h in data set [2] (time point 1 h) came out at 1.72. Besides, in data set [2] (time point 2 h), the Kp at 2 h worked out at 1.38. Further, the Kp at 4 h in data set [2] (time point 4 h) was found to be 1.04. In addition, the Kp at 6 h in data set [2] (time point 6 h) turned out to be 0.82. The Kp at 8 h in data set [2] (time point 8 h) worked out at 1.12.
With `Cc1cc(N2CCOC[C@@H]2C)ccc1-c1ccc(CC(=O)NCc2ccc(C#N)cc2)nc1` [Compound 122], the 50% growth inhibitory concentration (GI50) in the data set with GL261 cells is 18.9 nM; in the data set on GL261 cells (Mus musculus, GL261, 72 h) it was 13.8 nM; in the data set on U87 cells, 17.3 nM; with U87 cells (Homo sapiens, U-87 MG, 72 h) it was 24.7 nM.
`Cc1cc(N2CCOC[C@@H]2C)ccc1-c1ccc(CC(=O)NCc2ccccc2C#N)nc1` [Compound 123]: the GI50 in the data set with GL261 cells (Mus musculus, GL261, 72 h) was 456 nM; in the data set with U87 cells (Homo sapiens, U-87 MG, 72 h), 473 nM.
The corresponding values for `Cc1cc(N2CCOC[C@@H]2C)ccc1-c1ccc(CC(=O)NCc2cccc(C#N)c2)nc1` [Compound 124] are 1030 nM and 860 nM.
As for `COc1ccccc1CNC(=O)Cc1ccc(-c2ccc(N3CCOC[C@@H]3C)cc2C)cn1` [Compound 125], the GI50 in the data set with GL261 cells is 158 nM; in the data set with GL261 cells (Mus musculus, GL261, 72 h), 140 nM; with U87 cells, 230 nM; in the data set with U87 cells (Homo sapiens, U-87 MG, 72 h), 195 nM.
The corresponding values for `COc1cc(N2CCOC[C@@H]2C)ccc1-c1ccc(CC(=O)NCc2ccccc2)nc1` [Compound 126] are 38.6 nM, 47.9 nM, 46 nM and 41.9 nM.
As for `COc1cc(N2CCOC[C@@H]2C)ccc1-c1ccc(CC(=O)NCc2ccccc2F)nc1` [Compound 127], the GI50 was 207 nM in the data set on GL261 cells (Mus musculus, GL261, 72 h) and 269 nM in the data set with U87 cells (Homo sapiens, U-87 MG, 72 h).
The corresponding values for `COc1cc(N2CCOC[C@@H]2C)ccc1-c1ccc(CC(=O)NCc2cccc(F)c2)nc1` [Compound 128] are 303 nM and 377 nM.
Consider `COc1cc(N2CCOC[C@@H]2C)ccc1-c1ccc(CC(=O)NCc2ccc(F)cc2)nc1` [Compound 129], for which the GI50 in the data set with GL261 cells worked out at 30.3 nM; in the data set with GL261 cells (Mus musculus, GL261, 72 h), 51.7 nM; in the data set with U87 cells, 38.1 nM; in the data set with U87 cells (Homo sapiens, U-87 MG, 72 h) it was 36 nM.
The like results for `COc1cc(N2CCOC[C@@H]2C)ccc1-c1ccc(CC(=O)NCc2ccc(C#N)cc2)nc1` [Compound 130] were, in that order, 107 nM, 111 nM, 135 nM and 104 nM.

(Values after patent publication US20210196724A1, “BIARYL COMPOSITIONS AND METHODS FOR MODULATING A KINASE CASCADE” (Athenex, Inc., priority 2016, published 2021).)
